Columns and labels:
HG3 cells = assay: Cell growth curves over 12 days, HG3; format: cell-based; details: for anti-proliferative potency compared to PRT382: HG3
Procedure: (§1) Live cells/mL were counted on days 3, 6, 10, and 12. […] The split factor was calculated at indicated time points by dividing the counted cells/mL by 3E5. Cell growth was extrapolated over time by multiplying the subsequent cell count by the previous split factor. Cell growth is plotted as fold change relative to DMSO-treated cells.

Mec-1 cells = assay: Cell growth curves over 12 days, Mec-1; format: cell-based; details: for anti-proliferative potency compared to PRT382: Mec-1
Procedure: as §1

Nc1nc2cc(CC[C@H]3C[C@@H](n4ccc5c(N)ncnc54)[C@H](O)[C@@H]3O)ccc2cc1Br [JNJ-64619178]
Rep 1 Live Cells [Fold Change] (HG3 cells; HG3, 1 nM, day 0): 1 Fold Change | Rep 2 Live Cells [Fold Change] (HG3 cells; HG3, 1 nM, day 0): 1 Fold Change | Rep 1 Live Cells [Fold Change] (HG3 cells; HG3, 1 nM, day 3): 6.233 Fold Change | Rep 2 Live Cells [Fold Change] (HG3 cells; HG3, 1 nM, day 3): 6.733 Fold Change | Rep 1 Live Cells [Fold Change] (HG3 cells; HG3, 1 nM, day 6): 33.0367 Fold Change | Rep 2 Live Cells [Fold Change] (HG3 cells; HG3, 1 nM, day 6): 39.5022 Fold Change | Rep 1 Live Cells [Fold Change] (HG3 cells; HG3, 1 nM, day 10): 290.723 Fold Change | Rep 2 Live Cells [Fold Change] (HG3 cells; HG3, 1 nM, day 10): 314.043 Fold Change | Rep 1 Live Cells [Fold Change] (HG3 cells; HG3, 1 nM, day 12): 802.395 Fold Change | Rep 2 Live Cells [Fold Change] (HG3 cells; HG3, 1 nM, day 12): 1088.68 Fold Change | Rep 1 Live Cells [Fold Change] (HG3 cells; HG3, 10 nM, day 0): 1 Fold Change | Rep 2 Live Cells [Fold Change] (HG3 cells; HG3, 10 nM, day 0): 1 Fold Change | Rep 1 Live Cells [Fold Change] (HG3 cells; HG3, 10 nM, day 3): 4.733 Fold Change | Rep 2 Live Cells [Fold Change] (HG3 cells; HG3, 10 nM, day 3): 5.9 Fold Change | Rep 1 Live Cells [Fold Change] (HG3 cells; HG3, 10 nM, day 6): 4.86 Fold Change | Rep 2 Live Cells [Fold Change] (HG3 cells; HG3, 10 nM, day 6): 7.375 Fold Change | Rep 1 Live Cells [Fold Change] (HG3 cells; HG3, 10 nM, day 10): 4.276 Fold Change | Rep 2 Live Cells [Fold Change] (HG3 cells; HG3, 10 nM, day 10): 8.039 Fold Change | Rep 1 Live Cells [Fold Change] (HG3 cells; HG3, 10 nM, day 12): 4.945 Fold Change | Rep 2 Live Cells [Fold Change] (HG3 cells; HG3, 10 nM, day 12): 8.633 Fold Change | Rep 1 Live Cells [Fold Change] (HG3 cells; HG3, 100 nM, day 0): 1 Fold Change | Rep 2 Live Cells [Fold Change] (HG3 cells; HG3, 100 nM, day 0): 1 Fold Change | Rep 1 Live Cells [Fold Change] (HG3 cells; HG3, 100 nM, day 3): 4.133 Fold Change | Rep 2 Live Cells [Fold Change] (HG3 cells; HG3, 100 nM, day 3): 5.6 Fold Change | Rep 1 Live Cells [Fold Change] (HG3 cells; HG3, 100 nM, day 6): 4.064 Fold Change | Rep 2 Live Cells [Fold Change] (HG3 cells; HG3, 100 nM, day 6): 5.619 Fold Change | Rep 1 Live Cells [Fold Change] (HG3 cells; HG3, 100 nM, day 10): 2.5 Fold Change | Rep 2 Live Cells [Fold Change] (HG3 cells; HG3, 100 nM, day 10): 4.6354 Fold Change | Rep 1 Live Cells [Fold Change] (HG3 cells; HG3, 100 nM, day 12): 1.958 Fold Change | Rep 2 Live Cells [Fold Change] (HG3 cells; HG3, 100 nM, day 12): 5.387 Fold Change | Rep 1 Live Cells [Fold Change] (HG3 cells; HG3, 1 µM, day 0): 1 Fold Change | Rep 2 Live Cells [Fold Change] (HG3 cells; HG3, 1 µM, day 0): 1 Fold Change | Rep 1 Live Cells [Fold Change] (HG3 cells; HG3, 1 µM, day 3): 1.6 Fold Change | Rep 2 Live Cells [Fold Change] (HG3 cells; HG3, 1 µM, day 3): 2.303 Fold Change | Rep 1 Live Cells [Fold Change] (HG3 cells; HG3, 1 µM, day 6): 1.024 Fold Change | Rep 2 Live Cells [Fold Change] (HG3 cells; HG3, 1 µM, day 6): 1.536 Fold Change | Rep 1 Live Cells [Fold Change] (HG3 cells; HG3, 1 µM, day 10): 3.369 Fold Change | Rep 2 Live Cells [Fold Change] (HG3 cells; HG3, 1 µM, day 10): 0.4381 Fold Change | Rep 1 Live Cells [Fold Change] (HG3 cells; HG3, 1 µM, day 12): 2.347 Fold Change | Rep 2 Live Cells [Fold Change] (HG3 cells; HG3, 1 µM, day 12): 3.411 Fold Change | anti-proliferative potency compared to PRT382 (HG3 cells; high doses (1µM)): similar | anti-proliferative potency compared to PRT382 (HG3 cells; lower doses (10nM, 100nM)): more potent | Rep 1 Live Cells [Fold Change] (Mec-1 cells; Mec-1, 1 nM, day 0): 1 Fold Change | Rep 2 Live Cells [Fold Change] (Mec-1 cells; Mec-1, 1 nM, day 0): 1 Fold Change | Rep 1 Live Cells [Fold Change] (Mec-1 cells; Mec-1, 1 nM, day 3): 6.73 Fold Change | Rep 2 Live Cells [Fold Change] (Mec-1 cells; Mec-1, 1 nM, day 3): 5.77 Fold Change | Rep 1 Live Cells [Fold Change] (Mec-1 cells; Mec-1, 1 nM, day 6): 33.4 Fold Change | Rep 2 Live Cells [Fold Change] (Mec-1 cells; Mec-1, 1 nM, day 6): 34.4 Fold Change | Rep 1 Live Cells [Fold Change] (Mec-1 cells; Mec-1, 1 nM, day 10): 194 Fold Change | Rep 2 Live Cells [Fold Change] (Mec-1 cells; Mec-1, 1 nM, day 10): 282 Fold Change | Rep 1 Live Cells [Fold Change] (Mec-1 cells; Mec-1, 1 nM, day 12): 737 Fold Change | Rep 2 Live Cells [Fold Change] (Mec-1 cells; Mec-1, 1 nM, day 12): 940 Fold Change | Rep 1 Live Cells [Fold Change] (Mec-1 cells; Mec-1, 10 nM, day 0): 1 Fold Change | Rep 2 Live Cells [Fold Change] (Mec-1 cells; Mec-1, 10 nM, day 0): 1 Fold Change | Rep 1 Live Cells [Fold Change] (Mec-1 cells; Mec-1, 10 nM, day 3): 4.7 Fold Change | Rep 2 Live Cells [Fold Change] (Mec-1 cells; Mec-1, 10 nM, day 3): 4.73 Fold Change | Rep 1 Live Cells [Fold Change] (Mec-1 cells; Mec-1, 10 nM, day 6): 4.72 Fold Change | Rep 2 Live Cells [Fold Change] (Mec-1 cells; Mec-1, 10 nM, day 6): 5.92 Fold Change | Rep 1 Live Cells [Fold Change] (Mec-1 cells; Mec-1, 10 nM, day 10): 4.93 Fold Change | Rep 2 Live Cells [Fold Change] (Mec-1 cells; Mec-1, 10 nM, day 10): 4.62 Fold Change | Rep 1 Live Cells [Fold Change] (Mec-1 cells; Mec-1, 10 nM, day 12): 3.86 Fold Change | Rep 2 Live Cells [Fold Change] (Mec-1 cells; Mec-1, 10 nM, day 12): 2.38 Fold Change | Rep 1 Live Cells [Fold Change] (Mec-1 cells; Mec-1, 100 nM, day 0): 1 Fold Change | Rep 2 Live Cells [Fold Change] (Mec-1 cells; Mec-1, 100 nM, day 0): 1 Fold Change | Rep 1 Live Cells [Fold Change] (Mec-1 cells; Mec-1, 100 nM, day 3): 4.17 Fold Change | Rep 2 Live Cells [Fold Change] (Mec-1 cells; Mec-1, 100 nM, day 3): 4.67 Fold Change | Rep 1 Live Cells [Fold Change] (Mec-1 cells; Mec-1, 100 nM, day 6): 3.53 Fold Change | Rep 2 Live Cells [Fold Change] (Mec-1 cells; Mec-1, 100 nM, day 6): 4.53 Fold Change | Rep 1 Live Cells [Fold Change] (Mec-1 cells; Mec-1, 100 nM, day 10): 2.56 Fold Change | Rep 2 Live Cells [Fold Change] (Mec-1 cells; Mec-1, 100 nM, day 10): 2.9 Fold Change | Rep 1 Live Cells [Fold Change] (Mec-1 cells; Mec-1, 100 nM, day 12): 1.15 Fold Change | Rep 2 Live Cells [Fold Change] (Mec-1 cells; Mec-1, 100 nM, day 12): 1.27 Fold Change | Rep 1 Live Cells [Fold Change] (Mec-1 cells; Mec-1, 1 µM, day 0): 1 Fold Change | Rep 2 Live Cells [Fold Change] (Mec-1 cells; Mec-1, 1 µM, day 0): 1 Fold Change | Rep 1 Live Cells [Fold Change] (Mec-1 cells; Mec-1, 1 µM, day 3): 1.48 Fold Change | Rep 2 Live Cells [Fold Change] (Mec-1 cells; Mec-1, 1 µM, day 3): 1.38 Fold Change | Rep 1 Live Cells [Fold Change] (Mec-1 cells; Mec-1, 1 µM, day 6): 0.841 Fold Change | Rep 2 Live Cells [Fold Change] (Mec-1 cells; Mec-1, 1 µM, day 6): 2.27 Fold Change | Rep 1 Live Cells [Fold Change] (Mec-1 cells; Mec-1, 1 µM, day 10): 1.28 Fold Change | Rep 2 Live Cells [Fold Change] (Mec-1 cells; Mec-1, 1 µM, day 10): 1.57 Fold Change | Rep 1 Live Cells [Fold Change] (Mec-1 cells; Mec-1, 1 µM, day 12): 0.808 Fold Change | Rep 2 Live Cells [Fold Change] (Mec-1 cells; Mec-1, 1 µM, day 12): 0.765 Fold Change | anti-proliferative potency compared to PRT382 (Mec-1 cells; high doses (1µM)): similar | anti-proliferative potency compared to PRT382 (Mec-1 cells; lower doses (10nM, 100nM)): more potent

Source: PMC9823097, “Dysregulation of PRMT5 in chronic lymphocytic leukemia promotes progression with high risk of Richter’s transformation” (Nature Communications, 2023)
